≈ marks a conversion by molar mass, not a printed value. Structures can show the parent of a compound that is named as a salt. Where two headings read alike, the source gives them in different places.
Key:
[1] = from references, cited from earlier work
[2] = Free rasagiline base in citrate salt preparations (toluene extraction, TLC, pH); conditions: for Content of extractable base (toluene) % on total base content: by ratio base to acid mole:mole
[3] = Storage of citrate salts in sealed glass vials in refrigerator; format: physicochemical; conditions: 7±2° C., sealed vial
From the text: (§1) The changes were observed and recorded.

[4] = Aqueous salt solutions held at +5° C.; format: physicochemical; conditions: 15 hrs at +5° C.
Procedure: (§2) 3.02 g of Citric acid was dissolved in 4 ml deionized water. […] Exothermic effect was observed (temperature rose from 22 to 25° C.), and most of the solid was dissolved. Then the mixture was heated to 42° and complete dissolution of the solid was observed. The resulting clear viscous syrup-like solution was held in refrigerator at +5° C. overnight.
3.45 g of Citric acid was dissolved in 5 ml deionized water and pre-heated to 30° C. […] Exothermic effect was observed (temperature rose from 30 to 36° C.), and the solid was dissolved. The resulted clear viscous syrup-like solution was held in refrigerator at +5° C. overnight.
as §2, with “3.46” for “3.02”, “5” for “4”, “27°” for “25°”, “46° C. 0.5 ml water was added” for “42°”

[5] = Exposure of citrate salts to atmospheric air in open dishes at ambient temperature; format: physicochemical; conditions: for Changes on exposure to atmosphere (appearance): ambient temperature, open dish
From the text: as §1

[6] = biological target: B-form of the enzyme monoamine oxidase (“MAO-B”) (Homo sapiens, UniProt P27338); conditions: reported in prior patents; cited from earlier work
Sequence of B-form of the enzyme monoamine oxidase (“MAO-B”) (P27338 whole entry, species assumed): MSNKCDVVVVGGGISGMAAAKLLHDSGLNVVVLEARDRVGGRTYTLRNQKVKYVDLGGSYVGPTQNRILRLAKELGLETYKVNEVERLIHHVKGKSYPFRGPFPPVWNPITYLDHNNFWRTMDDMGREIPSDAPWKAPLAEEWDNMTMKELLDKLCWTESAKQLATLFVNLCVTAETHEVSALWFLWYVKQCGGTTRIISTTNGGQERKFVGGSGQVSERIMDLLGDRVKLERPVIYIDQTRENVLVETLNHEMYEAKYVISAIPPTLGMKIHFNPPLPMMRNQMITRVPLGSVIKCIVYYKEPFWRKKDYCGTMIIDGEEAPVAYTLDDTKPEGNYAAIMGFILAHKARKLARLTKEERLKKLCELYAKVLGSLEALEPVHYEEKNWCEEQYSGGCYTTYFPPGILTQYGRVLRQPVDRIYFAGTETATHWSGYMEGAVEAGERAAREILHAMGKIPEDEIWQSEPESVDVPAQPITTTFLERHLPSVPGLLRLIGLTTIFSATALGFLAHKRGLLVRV

[7] = Aqueous / water solubility; conditions: aqueous citric acid reaction solution
physchem = conditions: water
[8] = cited from earlier work

Cl [Chloride]
Hygroscopicity by KF ([1]; Table 8c): Not hygroscopic

O=C(O)CC(O)(CC(=O)O)C(=O)O [Citric Acid, Citric acid]
Hygroscopicity by KF ([1]; Table 8b): low

C#CCNC1CCc2ccccc21.C#CCNC1CCc2ccccc21.O=C(O)CC(O)(CC(=O)O)C(=O)O (stereo not drawn) [Di-citrate, di-rasagiline citrate]
Content of extractable base (toluene) % on total base content [2]: 22.0%

C#CCN[C@@H]1CCc2ccccc21.C#CCN[C@@H]1CCc2ccccc21.O=S(=O)(O)CCS(=O)(=O)O [Edisilate]
Hygroscopicity by KF ([1]; Table 8c): Not hygroscopic

C#CCN[C@@H]1CCc2ccccc21.O=C(O)CC(O)(CC(=O)O)C(=O)O [Example 4b]
Appearance stored in refrigerator ([3]; 0 month): White powder | Appearance stored in refrigerator ([3]; 3 months): White powder | Appearance stored in refrigerator ([3]; 6 months): White powder | precipitation from solution [4]: No precipitation | Changes on exposure to atmosphere (appearance) ([5]; 0:00 hrs:min): Powder | Changes on exposure to atmosphere (appearance) ([5]; 1:50-2:00 hrs:min): Semi-solid | Changes on exposure to atmosphere (appearance) ([5]; 6:00 hrs:min): Syrup | Changes on exposure to atmosphere (appearance) ([5]; 7:00 hrs:min): Syrup

C#CCN[C@@H]1CCc2ccccc21.C#CCN[C@@H]1CCc2ccccc21.O=C(O)CC(O)(CC(=O)O)C(=O)O [Example 4c]
Appearance stored in refrigerator ([3]; 0 month): White powder | Appearance stored in refrigerator ([3]; 3 months): White powder | Appearance stored in refrigerator ([3]; 6 months): White powder | precipitation from solution [4]: No precipitation | Changes on exposure to atmosphere (appearance) ([5]; 0:00 hrs:min): Powder | Changes on exposure to atmosphere (appearance) ([5]; 0:50-1:00 hrs:min): Powder | Changes on exposure to atmosphere (appearance) ([5]; 0:30 hrs:min): Powder | Changes on exposure to atmosphere (appearance) ([5]; 1:50-2:00 hrs:min): Powder | Changes on exposure to atmosphere (appearance) ([5]; 5:00 hrs:min): Lump powder

C#CCN[C@@H]1CCc2ccccc21.C#CCN[C@@H]1CCc2ccccc21.C#CCN[C@@H]1CCc2ccccc21.O=C(O)CC(O)(CC(=O)O)C(=O)O [Example 4d]
Appearance stored in refrigerator ([3]; 0 month): White powder | Appearance stored in refrigerator ([3]; 3 months): White powder | Appearance stored in refrigerator ([3]; 6 months): White powder | precipitation from solution [4]: No precipitation | Changes on exposure to atmosphere (appearance) ([5]; 0:00 hrs:min): Powder | Changes on exposure to atmosphere (appearance) ([5]; 0:30 hrs:min): Powder | Changes on exposure to atmosphere (appearance) ([5]; 5:00 hrs:min): Semi-solid | Changes on exposure to atmosphere (appearance) ([5]; 6:00 hrs:min): Semi-solid

C#CCN[C@@H]1CCc2ccccc21.O=C(O)CC(O)(CC(=O)O)C(=O)O [Example 5.1]
Extracted R-PAI (%) ([2]; free base extracted with toluene, solvent and citric acid:base mole proportions per example): 0.06 g-1.75%

C#CCN[C@@H]1CCc2ccccc21 [Mesylate, Rasagiline mesylate]
Hygroscopicity by KF ([1]; Table 8c): Not hygroscopic

C#CCN[C@@H]1CCc2ccccc21.O=C(O)CC(O)(CC(=O)O)C(=O)O [Mono-citrate, mono-rasagiline citrate]
Content of extractable base (toluene) % on total base content [2]: 1.75-3.6%

C#CCN[C@@H]1CCc2ccccc21 [Rasagiline, R(+)-N-propargyl-1-aminoindan]
inhibition of MAO-B [6]: selective inhibitor | dissolves in aqueous reaction solution [7]: more than 10 wt % | solubility (physchem): ~2000 µg/mL (≈ 11.7 mM) | Hygroscopicity by KF ([1]; Table 8b): Not hygroscopic

C#CCNC1CCc2ccccc21.C#CCNC1CCc2ccccc21.C#CCNC1CCc2ccccc21.O=C(O)CC(O)(CC(=O)O)C(=O)O (stereo not drawn) [Tri-citrate, tri-rasagiline citrate]
Content of extractable base (toluene) % on total base content [2]: 42.7%

Oxalate
Hygroscopicity by KF ([1]; Table 8c): Not hygroscopic

Tosylate
Water solubility ([8]; Table 8c, from references): 60000 to 70000 µg/mL

rasagiline citrate
hygroscopicity (in words) ([5]; exposed to air/humidity at ambient temperature): highest hygroscopicity

rasagiline maleate
Water solubility (mg/ml) ([8]; Table 8c, from references): >=1000 mg/ml | solubility ([8]; as described in U.S. Pat. No. 6,630,514): not less than 1000 mg/ml water
